Results: patent US20230085307A1, “PYRIDAZINONE COMPOUND AND HERBICIDE” (NISSAN CHEMICAL CORPORATION, priority 2019, published 2023)

Columns and labels:
late watergrass = experiment: Test Example 2: herbicidal activity, application during weed generation under submerged conditions (Table 17, symbol A); format: in vivo, late watergrass (Echinochloa oryzicola); details: AAH 320 g/ha; application during weed generation, submerged conditions
How it was run: (§1)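 Steps: fill Wagner pots with alluvial soil; add water to give 4 cm depth; sow the species mixed; grow under glass at 25–30° C.; at 1–2 leaves apply water-diluted emulsion formulation to the water surface at a fixed herbicide amount; score after 3 weeks.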

Japanese bulrush = experiment: Test Example 2: herbicidal activity, application during weed generation under submerged conditions (Table 17, symbol B); format: in vivo, Japanese bulrush (Schoenoplectus juncoides); details: AAH 320 g/ha; application during weed generation, submerged conditions
How it was run: as §1

oval-leafed pondweed = experiment: Test Example 2: herbicidal activity, application during weed generation under submerged conditions (Table 17, symbol C); format: in vivo, oval-leafed pondweed (Monochoria vaginalis); details: AAH 320 g/ha; application during weed generation, submerged conditions
How it was run: as §1

barnyard grass [1] = experiment: Test Example 3: herbicidal effect by foliage application, Wagner pot (Table 18, symbol H); format: in vivo, barnyard grass (Echinochloa crus-galli)
How it was run: (§2)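 Plants were sown in alluvial soil held under 0.1–0.5 cm standing water and grown 14 days in a greenhouse at 25–30 °C. An emulsifiable formulation, water-diluted to the set dose, was then sprayed onto the foliage, and effects were scored three weeks later using previously defined criteria.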

Chinese sprangletop = experiment: Test Example 3: herbicidal effect by foliage application, Wagner pot (Table 18, symbol D); format: in vivo, chinese sprangletop (Leptochloa chinensis)
How it was run: as §2

rice flat sedge = experiment: Test Example 3: herbicidal effect by foliage application, Wagner pot (Table 18, symbol E); format: in vivo, rice flat sedge (Cyperus iria)
How it was run: as §2

southern crabgrass [2] = experiment: Test Example 4: herbicidal effect by soil treatment (Table 19, symbol F); format: in vivo, southern crabgrass (Digitaria ciliaris)
How it was run: (§3)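 Applied as a water-diluted emulsion, the compound was sprayed onto soil covering newly sown seeds. Evaluation came three weeks after application, in a greenhouse held at 25° C. to 30° C.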

green foxtail [3] = experiment: Test Example 4: herbicidal effect by soil treatment (Table 19, symbol G); format: in vivo, green foxtail (Setaria viridis)
How it was run: as §3

barnyard grass [4] = experiment: Test Example 4: herbicidal effect by soil treatment (Table 19, symbol H); format: in vivo, barnyard grass (Echinochloa crus-galli)
How it was run: as §3

wild oat [5] = experiment: Test Example 4: herbicidal effect by soil treatment (Table 19, symbol I); format: in vivo, wild oat (Avena fatua)
How it was run: as §3

blackgrass [6] = experiment: Test Example 4: herbicidal effect by soil treatment (Table 19, symbol J); format: in vivo, blackgrass (Alopecurus myosuroides)
How it was run: as §3

Italian ryegrass [7] = experiment: Test Example 4: herbicidal effect by soil treatment (Table 19, symbol K); format: in vivo, Italian ryegrass (Lolium multiflorum)
How it was run: as §3

windgrass [8] = experiment: Test Example 4: herbicidal effect by soil treatment (Table 19, symbol L); format: in vivo, windgrass (Apera spica-venti)
How it was run: as §3

velvetleaf [9] = experiment: Test Example 4: herbicidal effect by soil treatment (Table 19, symbol M); format: in vivo, velvetleaf (Abutilon theophrasti)
How it was run: as §3

redroot pigweed [10] = experiment: Test Example 4: herbicidal effect by soil treatment (Table 19, symbol N); format: in vivo, redroot pigweed (Amaranthus retroflexus)
How it was run: as §3

lambsquarters [11] = experiment: Test Example 4: herbicidal effect by soil treatment (Table 19, symbol O); format: in vivo, lambsquarters (Chenopodium album)
How it was run: as §3

chickweed [12] = experiment: Test Example 4: herbicidal effect by soil treatment (Table 19, symbol P); format: in vivo, common chickweed (Stellaria media)
How it was run: as §3

persian speedwell [13] = experiment: Test Example 4: herbicidal effect by soil treatment (Table 19, symbol R); format: in vivo, Persian speedwell (Veronica persica)
How it was run: as §3

southern crabgrass [14] = experiment: Test Example 5: herbicidal effect by foliage application, plastic box (Table 20, symbol F); format: in vivo, southern crabgrass (Digitaria ciliaris); details: foliage application
How it was run: (§4)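 Sow seeds spot-wise in sterilized diluvial soil; cover with ~1.5 cm soil. Grow 14 days in greenhouse, 25° C. to 30° C. Spray foliage with emulsion diluted to predetermined amount. Rate effect after 3 weeks.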

green foxtail [15] = experiment: Test Example 5: herbicidal effect by foliage application, plastic box (Table 20, symbol G); format: in vivo, green foxtail (Setaria viridis); details: foliage application
How it was run: as §4

barnyard grass [16] = experiment: Test Example 5: herbicidal effect by foliage application, plastic box (Table 20, symbol H); format: in vivo, barnyard grass (Echinochloa crus-galli); details: foliage application
How it was run: as §4

wild oat [17] = experiment: Test Example 5: herbicidal effect by foliage application, plastic box (Table 20, symbol I); format: in vivo, wild oat (Avena fatua); details: foliage application
How it was run: as §4

blackgrass [18] = experiment: Test Example 5: herbicidal effect by foliage application, plastic box (Table 20, symbol J); format: in vivo, blackgrass (Alopecurus myosuroides); details: foliage application
How it was run: as §4

Italian ryegrass [19] = experiment: Test Example 5: herbicidal effect by foliage application, plastic box (Table 20, symbol K); format: in vivo, Italian ryegrass (Lolium multiflorum); details: foliage application
How it was run: as §4

windgrass [20] = experiment: Test Example 5: herbicidal effect by foliage application, plastic box (Table 20, symbol L); format: in vivo, windgrass (Apera spica-venti); details: foliage application
How it was run: as §4

velvetleaf [21] = experiment: Test Example 5: herbicidal effect by foliage application, plastic box (Table 20, symbol M); format: in vivo, velvetleaf (Abutilon theophrasti); details: foliage application
How it was run: as §4

redroot pigweed [22] = experiment: Test Example 5: herbicidal effect by foliage application, plastic box (Table 20, symbol N); format: in vivo, redroot pigweed (Amaranthus retroflexus); details: foliage application
How it was run: as §4

lambsquarters [23] = experiment: Test Example 5: herbicidal effect by foliage application, plastic box (Table 20, symbol O); format: in vivo, lambsquarters (Chenopodium album); details: foliage application
How it was run: as §4

chickweed [24] = experiment: Test Example 5: herbicidal effect by foliage application, plastic box (Table 20, symbol P); format: in vivo, common chickweed (Stellaria media); details: foliage application
How it was run: as §4

persian speedwell [25] = experiment: Test Example 5: herbicidal effect by foliage application, plastic box (Table 20, symbol R); format: in vivo, Persian speedwell (Veronica persica); details: foliage application
How it was run: as §4

[26] = AAH 320 g/ha, three weeks after application
[27] = amount of applied herbicide 320 g/ha
[28] = 320 g/ha, evaluated three weeks after application

Cc1nn(C)c(=O)c(-c2c(-c3ccc(OCc4cnc(Cl)s4)cc3)sc3ccccc23)c1O [1-144]
herbicidal effect rating, A: late watergrass (late watergrass): 2 (Herbicidal rate of 20% or more and less than 40%) | herbicidal effect rating, B: Japanese bulrush (Japanese bulrush): 0 (Herbicidal rate of 5% or less (almost no effect)) | herbicidal effect rating, C: oval-leafed pondweed (oval-leafed pondweed): 0 (Herbicidal rate of 5% or less (almost no effect)) | herbicidal effect on H (barnyard grass), rating 0-5 (barnyard grass [1]; 320 g/ha): 5 (Herbicidal rate of 90% or more (almost completely withered)) | herbicidal effect on D (Chinese sprangletop), rating 0-5 (Chinese sprangletop; 320 g/ha): 3 (Herbicidal rate of 40% or more and less than 70%) | herbicidal effect on E (rice flat sedge), rating 0-5 (rice flat sedge; 320 g/ha): 5 (Herbicidal rate of 90% or more (almost completely withered)) | F: southern crabgrass, herbicidal effect rating (southern crabgrass [2]; AAH 320 g/ha): 0 (Herbicidal rate of 5% or less (almost no effect)) | G: green foxtail, herbicidal effect rating (green foxtail [3]; AAH 320 g/ha): 0 (Herbicidal rate of 5% or less (almost no effect)) | H: barnyard grass, herbicidal effect rating (barnyard grass [4]; AAH 320 g/ha): 0 (Herbicidal rate of 5% or less (almost no effect)) | I: wild oat, herbicidal effect rating (wild oat [5]; AAH 320 g/ha): 0 (Herbicidal rate of 5% or less (almost no effect)) | J: blackgrass, herbicidal effect rating (blackgrass [6]; AAH 320 g/ha): 1 (Herbicidal rate of 5% or more and less than 20%) | K: Italian ryegrass, herbicidal effect rating (Italian ryegrass [7]; AAH 320 g/ha): 3 (Herbicidal rate of 40% or more and less than 70%) | L: windgrass, herbicidal effect rating (windgrass [8]; AAH 320 g/ha): 0 (Herbicidal rate of 5% or less (almost no effect)) | M: velvetleaf, herbicidal effect rating (velvetleaf [9]; AAH 320 g/ha): 0 (Herbicidal rate of 5% or less (almost no effect)) | N: redroot pigweed, herbicidal effect rating (redroot pigweed [10]; AAH 320 g/ha): 0 (Herbicidal rate of 5% or less (almost no effect)) | O: lambsquarters, herbicidal effect rating (lambsquarters [11]; AAH 320 g/ha): 0 (Herbicidal rate of 5% or less (almost no effect)) | P: chickweed, herbicidal effect rating (chickweed [12]; AAH 320 g/ha): 3 (Herbicidal rate of 40% or more and less than 70%) | R: persian speedwell, herbicidal effect rating (persian speedwell [13]; AAH 320 g/ha): 3 (Herbicidal rate of 40% or more and less than 70%) | F: southern crabgrass, herbicidal effect (southern crabgrass [14]; [26]): 5 (Herbicidal rate of 90% or more (almost completely withered)) | G: green foxtail, herbicidal effect (green foxtail [15]; [26]): 4 (Herbicidal rate of 70% or more and less than 90%) | H: barnyard grass, herbicidal effect (barnyard grass [16]; [26]): 5 (Herbicidal rate of 90% or more (almost completely withered)) | I: wild oat, herbicidal effect (wild oat [17]; [26]): 0 (Herbicidal rate of 5% or less (almost no effect)) | J: blackgrass, herbicidal effect (blackgrass [18]; [26]): 5 (Herbicidal rate of 90% or more (almost completely withered)) | K: Italian ryegrass, herbicidal effect (Italian ryegrass [19]; [26]): 4 (Herbicidal rate of 70% or more and less than 90%) | L: windgrass, herbicidal effect (windgrass [20]; [26]): 5 (Herbicidal rate of 90% or more (almost completely withered)) | M: velvetleaf, herbicidal effect (velvetleaf [21]; [26]): 2 (Herbicidal rate of 20% or more and less than 40%) | N: redroot pigweed, herbicidal effect (redroot pigweed [22]; [26]): 3 (Herbicidal rate of 40% or more and less than 70%) | O: lambsquarters, herbicidal effect (lambsquarters [23]; [26]): 1 (Herbicidal rate of 5% or more and less than 20%) | P: chickweed, herbicidal effect (chickweed [24]; [26]): 5 (Herbicidal rate of 90% or more (almost completely withered)) | R: persian speedwell, herbicidal effect (persian speedwell [25]; [26]): 5 (Herbicidal rate of 90% or more (almost completely withered))

COc1ccc(-c2sc3ccc(Cl)cc3c2-c2c(O)c(C)nn(C)c2=O)cc1F [2-117]
herbicidal effect rating, A: late watergrass (late watergrass): 0 (Herbicidal rate of 5% or less (almost no effect)) | herbicidal effect rating, B: Japanese bulrush (Japanese bulrush): 2 (Herbicidal rate of 20% or more and less than 40%) | herbicidal effect rating, C: oval-leafed pondweed (oval-leafed pondweed): 3 (Herbicidal rate of 40% or more and less than 70%) | herbicidal effect on H: barnyard grass (barnyard grass [1]; [27]): 3 (Herbicidal rate of 40% or more and less than 70%) | herbicidal effect on D: Chinese sprangletop (Chinese sprangletop; [27]): 3 (Herbicidal rate of 40% or more and less than 70%) | herbicidal effect on E: rice flat sedge (rice flat sedge; [27]): 5 (Herbicidal rate of 90% or more (almost completely withered)) | F: southern crabgrass, herbicidal effect rating (southern crabgrass [2]; [27]): 0 (Herbicidal rate of 5% or less (almost no effect)) | G: green foxtail, herbicidal effect rating (green foxtail [3]; [27]): 0 (Herbicidal rate of 5% or less (almost no effect)) | H: barnyard grass, herbicidal effect rating (barnyard grass [4]; [27]): 0 (Herbicidal rate of 5% or less (almost no effect)) | I: wild oat, herbicidal effect rating (wild oat [5]; [27]): 0 (Herbicidal rate of 5% or less (almost no effect)) | J: blackgrass, herbicidal effect rating (blackgrass [6]; [27]): 0 (Herbicidal rate of 5% or less (almost no effect)) | K: Italian ryegrass, herbicidal effect rating (Italian ryegrass [7]; [27]): 0 (Herbicidal rate of 5% or less (almost no effect)) | L: windgrass, herbicidal effect rating (windgrass [8]; [27]): 0 (Herbicidal rate of 5% or less (almost no effect)) | M: velvetleaf, herbicidal effect rating (velvetleaf [9]; [27]): 0 (Herbicidal rate of 5% or less (almost no effect)) | N: redroot pigweed, herbicidal effect rating (redroot pigweed [10]; [27]): 1 (Herbicidal rate of 5% or more and less than 20%) | O: lambsquarters, herbicidal effect rating (lambsquarters [11]; [27]): 3 (Herbicidal rate of 40% or more and less than 70%) | P: chickweed, herbicidal effect rating (chickweed [12]; [27]): 0 (Herbicidal rate of 5% or less (almost no effect)) | R: persian speedwell, herbicidal effect rating (persian speedwell [13]; [27]): 1 (Herbicidal rate of 5% or more and less than 20%) | herbicidal effect on F: southern crabgrass (southern crabgrass [14]; [28]): 0 (Herbicidal rate of 5% or less (almost no effect)) | herbicidal effect on G: green foxtail (green foxtail [15]; [28]): 0 (Herbicidal rate of 5% or less (almost no effect)) | herbicidal effect on H: barnyard grass (barnyard grass [16]; [28]): 0 (Herbicidal rate of 5% or less (almost no effect)) | herbicidal effect on I: wild oat (wild oat [17]; [28]): 0 (Herbicidal rate of 5% or less (almost no effect)) | herbicidal effect on J: blackgrass (blackgrass [18]; [28]): 0 (Herbicidal rate of 5% or less (almost no effect)) | herbicidal effect on K: Italian ryegrass (Italian ryegrass [19]; [28]): 0 (Herbicidal rate of 5% or less (almost no effect)) | herbicidal effect on L: windgrass (windgrass [20]; [28]): 0 (Herbicidal rate of 5% or less (almost no effect)) | herbicidal effect on M: velvetleaf (velvetleaf [21]; [28]): 4 (Herbicidal rate of 70% or more and less than 90%) | herbicidal effect on N: redroot pigweed (redroot pigweed [22]; [28]): 3 (Herbicidal rate of 40% or more and less than 70%) | herbicidal effect on O: lambsquarters (lambsquarters [23]; [28]): 3 (Herbicidal rate of 40% or more and less than 70%) | herbicidal effect on P: chickweed (chickweed [24]; [28]): 5 (Herbicidal rate of 90% or more (almost completely withered)) | herbicidal effect on R: persian speedwell (persian speedwell [25]; [28]): 5 (Herbicidal rate of 90% or more (almost completely withered))
